Measurements as given in patent US9540366B2, “Ring-fused heterocyclic compound” (Kyowa Hakko Kirin Co., Ltd., priority 2012, dated 2017).
Read-outs that look alike come from different tables or passages of the source.

Legend:
[1] = target: T1, human Cav3.2 T-type Ca2+ channel (Homo sapiens, UniProt O95180); experiment: Inhibitory effect for intracellular calcium response via Cav3.2 T-type Ca2+ channels (FLIPR Calcium 3 Assay Kit); assay type: cell-based
T1 construct: expressed in transfected cells; host or cells: KJMGER8 cells (Namalwa cell-derived cell line)
T1 sequence (O95180 whole entry): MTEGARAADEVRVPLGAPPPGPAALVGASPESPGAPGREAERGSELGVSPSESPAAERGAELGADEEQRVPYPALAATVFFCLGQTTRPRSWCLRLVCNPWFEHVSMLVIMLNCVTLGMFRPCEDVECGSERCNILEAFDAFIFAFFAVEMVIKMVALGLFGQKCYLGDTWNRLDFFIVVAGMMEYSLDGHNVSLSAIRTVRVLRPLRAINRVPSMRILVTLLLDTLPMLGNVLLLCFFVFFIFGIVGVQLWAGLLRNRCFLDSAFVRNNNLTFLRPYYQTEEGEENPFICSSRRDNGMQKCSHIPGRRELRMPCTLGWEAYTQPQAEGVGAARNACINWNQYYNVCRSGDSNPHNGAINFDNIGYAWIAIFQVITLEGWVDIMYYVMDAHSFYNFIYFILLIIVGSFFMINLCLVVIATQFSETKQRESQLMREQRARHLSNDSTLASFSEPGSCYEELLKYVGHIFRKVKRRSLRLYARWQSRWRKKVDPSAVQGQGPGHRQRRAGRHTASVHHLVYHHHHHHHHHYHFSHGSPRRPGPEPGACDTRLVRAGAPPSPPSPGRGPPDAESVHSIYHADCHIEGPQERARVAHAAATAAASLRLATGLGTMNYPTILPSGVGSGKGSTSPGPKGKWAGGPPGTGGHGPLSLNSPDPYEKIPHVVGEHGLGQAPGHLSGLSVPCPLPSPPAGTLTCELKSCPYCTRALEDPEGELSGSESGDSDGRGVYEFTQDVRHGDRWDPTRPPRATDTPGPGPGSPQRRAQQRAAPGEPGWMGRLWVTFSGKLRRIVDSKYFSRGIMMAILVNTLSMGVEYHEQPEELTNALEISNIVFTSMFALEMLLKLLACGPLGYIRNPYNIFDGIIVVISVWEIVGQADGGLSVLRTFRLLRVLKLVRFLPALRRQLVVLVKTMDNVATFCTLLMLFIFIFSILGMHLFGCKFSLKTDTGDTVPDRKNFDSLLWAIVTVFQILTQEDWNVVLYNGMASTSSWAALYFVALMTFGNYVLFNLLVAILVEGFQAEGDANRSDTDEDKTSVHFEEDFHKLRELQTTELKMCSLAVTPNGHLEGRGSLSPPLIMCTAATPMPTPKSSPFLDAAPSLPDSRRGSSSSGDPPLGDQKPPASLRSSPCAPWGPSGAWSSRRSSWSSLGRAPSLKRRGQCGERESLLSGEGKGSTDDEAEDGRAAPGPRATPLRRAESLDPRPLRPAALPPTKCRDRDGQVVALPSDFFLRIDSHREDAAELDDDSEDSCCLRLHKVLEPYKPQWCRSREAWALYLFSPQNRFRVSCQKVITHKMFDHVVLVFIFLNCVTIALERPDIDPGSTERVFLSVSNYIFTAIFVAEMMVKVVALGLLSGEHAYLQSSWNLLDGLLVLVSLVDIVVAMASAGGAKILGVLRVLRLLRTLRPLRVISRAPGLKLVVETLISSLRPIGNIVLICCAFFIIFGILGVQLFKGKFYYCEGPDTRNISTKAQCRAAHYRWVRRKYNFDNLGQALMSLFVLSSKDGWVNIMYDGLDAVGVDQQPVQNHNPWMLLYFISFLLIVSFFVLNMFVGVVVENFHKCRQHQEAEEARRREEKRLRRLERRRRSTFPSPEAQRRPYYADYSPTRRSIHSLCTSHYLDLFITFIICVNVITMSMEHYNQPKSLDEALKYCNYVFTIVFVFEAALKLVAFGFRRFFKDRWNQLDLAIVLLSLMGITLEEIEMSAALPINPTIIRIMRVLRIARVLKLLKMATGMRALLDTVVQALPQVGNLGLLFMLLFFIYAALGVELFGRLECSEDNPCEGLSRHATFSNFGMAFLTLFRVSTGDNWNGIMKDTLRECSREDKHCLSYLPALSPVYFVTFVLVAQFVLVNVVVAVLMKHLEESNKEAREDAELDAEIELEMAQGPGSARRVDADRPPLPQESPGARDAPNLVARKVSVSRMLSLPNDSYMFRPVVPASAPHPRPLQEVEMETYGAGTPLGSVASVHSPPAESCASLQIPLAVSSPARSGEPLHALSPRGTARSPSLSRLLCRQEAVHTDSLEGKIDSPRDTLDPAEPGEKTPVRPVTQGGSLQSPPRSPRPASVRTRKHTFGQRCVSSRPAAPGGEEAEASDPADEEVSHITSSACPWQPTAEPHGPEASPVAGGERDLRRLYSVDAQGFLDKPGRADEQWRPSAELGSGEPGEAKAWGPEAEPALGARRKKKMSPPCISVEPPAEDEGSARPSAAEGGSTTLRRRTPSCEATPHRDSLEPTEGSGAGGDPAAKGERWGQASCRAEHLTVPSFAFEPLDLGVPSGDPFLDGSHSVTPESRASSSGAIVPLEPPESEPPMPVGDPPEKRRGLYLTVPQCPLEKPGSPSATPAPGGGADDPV

[2] = tested on: morphine-induced pruritus mice; experiment: Inhibitory effect for pruritus in morphine-induced pruritus mice; assay type: in vivo; details: given 30 minutes or 1 hour before intrathecal morphine, scratching counted for 30 minutes, male ddY mice
Experimental: Inhibitory Effect for Pruritus in Morphine-Induced Pruritus Mice
Morphine (1 nmol/5 μL, dissolved in physiological saline) or physiological saline was intrathecally administered between the fifth and sixth lumbar vertebrae of male ddY mice using a microsyringe fitted with a 30-gauge injection needle. Mice to which only morphine was administered were referred to as a control group, and mice to which only physiological saline was administered were referred to as a physiological saline-administered group.
The number of scratching behavior with the hind legs which began to be observed immediately after the morphine administration was measured for 30 minutes. Because mice show continuous scratching actions in each scratching behavior, a series of such actions was counted as a single scratching behavior.
Each test compound was administered 30 minutes or 1 hour before the morphine administration. The test compound was suspended in a 0.5% methylcellulose solution and was prepared plural administration solutions of different concentrations, and each of them was orally administered in a volume of 10 mL/kg.

[3] = human Cav3.2-expressing KJMGER8 cells (Namalwa-derived), calcium response induced by 5 mmol/L CaCl2, 3 μmol/L mibefradil as reference, read-out: IC50 for the human Cav3.2 T-type Ca2+ current

SMILES: COC(C)(C)CNC(=O)c1cc(C#N)n2c(CC3CCC(F)(F)CC3)c(C(F)(F)F)nc2c1 [Compound 55, 5-Cyano-3-[(4,4-difluorocyclohexyl)methyl]-N-(2-methoxy-2-methylpropyl)-2-(trifluoromethyl)imidazo[1,2-a]pyridine-7-carboxamide]
- IC50 [1]: ≤ 100 nM
- inhibition of the increase of the scratching behavior in morphine-induced pruritus mice ([2]; oral dose of 30 mg/kg or less): inhibited the increase of the scratching behavior

SMILES: N#Cc1cc(C(=O)NCC2CC2)cc2nc(C(F)(F)F)c(CC3CCC(F)(F)CC3)n12 [Compound 53, 5-Cyano-N-(cyclopropylmethyl)-3-[(4,4-difluorocyclohexyl)methyl]-2-(trifluoromethyl)imidazo[1,2-a]pyridine-7-carboxamide]
- IC50 [1, 3]: ≤ 100 nM
- inhibition of the increase of the scratching behavior in morphine-induced pruritus mice ([2]; oral dose of 30 mg/kg or less): inhibited the increase of the scratching behavior

SMILES: [2H]C([2H])([2H])OC(C)(C)CNC(=O)c1cc2nc(C(C)(F)F)c(CC3CCC(F)(F)CC3)n2c(C#N)c1C [Compound 190, 5-Cyano-3-[(4,4-difluorocyclohexyl)methyl]-2-(1,1-difluoroethyl)-N-(2-methoxy-d3-2-methylpropyl)-6-methylimidazo[1,2-a]pyridine-7-carboxamide]
- IC50 [1]: ≤ 100 nM
- inhibition of the increase of the scratching behavior in morphine-induced pruritus mice ([2]; oral dose of 10 mg/kg or less): inhibited the increase of the scratching behavior

SMILES: Cc1cc(C(=O)NC2CCOCC2)cc2nc(C(F)(F)F)c(Cc3ccc(Cl)cc3)n12 [Compound 208, 3-(4-Chlorobenzyl)-5-methyl-N-(tetrahydro-2H-pyran-4-yl)-2-(trifluoromethyl)imidazo[1,2-a]pyridine-7-carboxamide]
- IC50 [1]: ≤ 100 nM
- inhibition of the increase of the scratching behavior in morphine-induced pruritus mice ([2]; oral dose of 10 mg/kg or less): inhibited the increase of the scratching behavior

SMILES: Cc1c(C(=O)NC2CCOCC2)cc2nc(C(C)(F)F)c(CC3CCC(F)(F)CC3)n2c1C#N [Compound 185, 5-Cyano-3-[(4,4-difluorocyclohexyl)methyl]-2-(1,1-difluoroethyl)-6-methyl-N-(tetrahydro-2H-pyran-4-yl)imidazo[1,2-a]pyridine-7-carboxamide]
- IC50 [1]: ≤ 100 nM
- inhibition of the increase of the scratching behavior in morphine-induced pruritus mice ([2]; oral dose of 10 mg/kg or less): inhibited the increase of the scratching behavior

SMILES: CC(C)(CNC(=O)c1cc(Cl)n2c(CC3CCC(F)(F)CC3)c(C(F)(F)F)nc2c1)S(C)(=O)=O [Compound 197, 5-Chloro-3-[(4,4-difluorocyclohexyl)methyl]-N-[2-methyl-2-(methylsulfonyl)propyl]-2-(trifluoromethyl)imidazo[1,2-a]pyridine-7-carboxamide]
- IC50 [1]: ≤ 100 nM
- inhibition of the increase of the scratching behavior in morphine-induced pruritus mice ([2]; oral dose of 10 mg/kg or less): inhibited the increase of the scratching behavior

SMILES: O=C(NC1CC2(COC2)C1)c1cc(Cl)n2c(CC3CCC(F)(F)CC3)c(C(F)(F)F)nc2c1 [Compound 129, 5-Chloro-3-[(4,4-difluorocyclohexyl)methyl]-N-(2-oxaspiro[3.3]heptan-6-yl)-2-(trifluoromethyl)imidazo[1,2-a]pyridine-7-carboxamide]
- inhibition of the increase of the scratching behavior in morphine-induced pruritus mice ([2]; oral dose of 30 mg/kg or less): inhibited the increase of the scratching behavior

SMILES: CN(C)CC(C)(C)CNC(=O)c1cc(C#N)n2c(CC3CCC(F)(F)CC3)c(C(F)(F)F)nc2c1 [Compound 182, 5-Cyano-3-[(4,4-difluorocyclohexyl)methyl]-N-[3-(dimethylamino)-2,2-dimethylpropyl]-2-(trifluoromethyl)imidazo[1,2-a]pyridine-7-carboxamide]
- IC50 [1, 3]: ≤ 100 nM
- inhibition of the increase of the scratching behavior in morphine-induced pruritus mice ([2]; oral dose of 10 mg/kg or less): inhibited the increase of the scratching behavior

SMILES: CC(C)(CNC(=O)c1cc(C#N)n2c(CC3CCC(F)(F)CC3)c(C(F)(F)F)nc2c1)S(C)(=O)=O [Compound 189, 5-Cyano-3-[(4,4-difluorocyclohexyl)methyl]-N-[2-methyl-2-(methylsulfonyl)propyl]-2-(trifluoromethyl)imidazo[1,2-a]pyridine-7-carboxamide]
- IC50 [1, 3]: ≤ 100 nM
- inhibition of the increase of the scratching behavior in morphine-induced pruritus mice ([2]; oral dose of 10 mg/kg or less): inhibited the increase of the scratching behavior

SMILES: CC(F)(F)c1nc2cc(C(=O)N[C@H]3C[C@@H]4CC[C@H]3O4)cc(C#N)n2c1CC1CCC(F)(F)CC1 [Compound 183, N-[(1R,2S,4S)-7-Oxabicyclo[2.2.1]heptan-2-yl]-5-cyano-3-[(4,4-difluorocyclohexyl)methyl]-2-(1,1-difluoroethyl)imidazo[1,2-a]pyridine-7-carboxamide]
- IC50 [1]: ≤ 100 nM
- inhibition of the increase of the scratching behavior in morphine-induced pruritus mice ([2]; oral dose of 10 mg/kg or less): inhibited the increase of the scratching behavior

SMILES: N#CC1(CNC(=O)c2cc(Cl)n3c(CC4CCC(F)(F)CC4)c(C(F)(F)F)nc3c2)CC1 [Compound 176, 5-Chloro-N-[(1-cyanocyclopropyl)methyl]-3-[(4,4-difluorocyclohexyl)methyl]-2-(trifluoromethyl)imidazo[1,2-a]pyridine-7-carboxamide]
- IC50 [1, 3]: ≤ 100 nM
- inhibition of the increase of the scratching behavior in morphine-induced pruritus mice ([2]; oral dose of 10 mg/kg or less): inhibited the increase of the scratching behavior

SMILES: Cc1c(C(=O)NC2CCOCC2)cc2nc(C(F)(F)F)c(CC3CCC(F)(F)CC3)n2c1C#N [Compound 181, 5-Cyano-3-[(4,4-difluorocyclohexyl)methyl]-6-methyl-N-(tetrahydro-2H-pyran-4-yl)-2-(trifluoromethyl)imidazo[1,2-a]pyridine-7-carboxamide]
- IC50 [1, 3]: ≤ 100 nM
- inhibition of the increase of the scratching behavior in morphine-induced pruritus mice ([2]; oral dose of 10 mg/kg or less): inhibited the increase of the scratching behavior

SMILES: COC(C)(C)CNC(=O)c1cc2nc(C(C)(F)F)c(CC3CCC(F)(F)CC3)n2c(C#N)c1C [Compound 184, 5-Cyano-3-[(4,4-difluorocyclohexyl)methyl]-2-(1,1-difluoroethyl)-N-(2-methoxy-2-methylpropyl)-6-methylimidazo[1,2-a]pyridine-7-carboxamide]
- IC50 [1]: ≤ 100 nM
- inhibition of the increase of the scratching behavior in morphine-induced pruritus mice ([2]; oral dose of 10 mg/kg or less): inhibited the increase of the scratching behavior

SMILES: CC(F)(F)c1nc2cc(C(=O)NC3CCC(F)(F)CC3)c(Cl)cn2c1CC1CCC(F)(F)CC1 [Compound 15, 6-Chloro-N-(4,4-difluorocyclohexyl)-3-[(4,4-difluorocyclohexyl)methyl]-2-(1,1-difluoroethyl)imidazo[1,2-a]pyridine-7-carboxamide]
- IC50 [1]: ≤ 100 nM
- inhibition of the increase of the scratching behavior in morphine-induced pruritus mice ([2]; oral dose of 30 mg/kg or less): inhibited the increase of the scratching behavior

SMILES: O=C(NC1CCOCC1)c1cc2nc(C(F)(F)F)c(CC3CCC(F)(F)CC3)n2c(Cl)c1Cl [Compound 193]
- inhibition of the increase of the scratching behavior in morphine-induced pruritus mice ([2]; oral dose of 10 mg/kg or less): inhibited the increase of the scratching behavior

SMILES: CC(C)c1nc2cc(C(=O)N[C@H]3C[C@@H]4CC[C@H]3O4)cc(C#N)n2c1CC1CCC(F)(F)CC1 [Compound 180, N-[(1R,2S,4S)-7-Oxabicyclo[2.2.1]heptan-2-yl]-5-cyano-3-[(4,4-difluorocyclohexyl)methyl]-2-isopropylimidazo[1,2-a]pyridine-7-carboxamide]
- IC50 [1]: ≤ 100 nM
- inhibition of the increase of the scratching behavior in morphine-induced pruritus mice ([2]; oral dose of 10 mg/kg or less): inhibited the increase of the scratching behavior

SMILES: [2H]C([2H])([2H])OC(C)(C)CNC(=O)c1cc(C#N)n2c(CC3CCC(F)(F)CC3)c(C(C)(F)F)nc2c1 [Compound 194, 5-Cyano-3-[(4,4-difluorocyclohexyl)methyl]-2-(1,1-difluoroethyl)-N-(2-methoxy-d3-2-methylpropyl)imidazo[1,2-a]pyridine-7-carboxamide]
- IC50 [1]: ≤ 100 nM
- inhibition of the increase of the scratching behavior in morphine-induced pruritus mice ([2]; oral dose of 10 mg/kg or less): inhibited the increase of the scratching behavior

SMILES: [2H]C([2H])([2H])OC(C)(C)CNC(=O)c1cc(C#N)n2c(CC3CCC(F)(F)CC3)c(C(F)(F)F)nc2c1 [Compound 186, 5-Cyano-3-[(4,4-difluorocyclohexyl)methyl]-N-(2-methoxy-d3-2-methylpropyl)-2-(trifluoromethyl)imidazo[1,2-a]pyridine-7-carboxamide]
- IC50 [1]: ≤ 100 nM
- inhibition of the increase of the scratching behavior in morphine-induced pruritus mice ([2]; oral dose of 10 mg/kg or less): inhibited the increase of the scratching behavior

SMILES: N#Cc1cc(C(=O)N[C@H]2C[C@@H]3CC[C@H]2O3)cc2nc(C(F)(F)F)c(CC3CCC(F)(F)CC3)n12 [Compound 178, N-[(1R,2S,4S)-7-Oxabicyclo[2.2.1]heptan-2-yl]-5-cyano-3-[(4,4-difluorocyclohexyl)methyl]-2-(trifluoromethyl)imidazo[1,2-a]pyridine-7-carboxamide]
- IC50 [1, 3]: ≤ 100 nM
- inhibition of the increase of the scratching behavior in morphine-induced pruritus mice ([2]; oral dose of 10 mg/kg or less): inhibited the increase of the scratching behavior

SMILES: COC(C)(C)CNC(=O)c1cc2nc(C(F)(F)F)c(CC3CCC(F)(F)CC3)n2c(C#N)c1Cl [Compound 173, 6-Chloro-5-cyano-3-[(4,4-difluorocyclohexyl)methyl]-N-(2-methoxy-2-methylpropyl)-2-(trifluoromethyl)imidazo[1,2-a]pyridine-7-carboxamide]
- IC50 [1]: ≤ 100 nM
- inhibition of the increase of the scratching behavior in morphine-induced pruritus mice ([2]; oral dose of 10 mg/kg or less): inhibited the increase of the scratching behavior

SMILES: COC(C)(C)CNC(=O)c1cc(C#N)n2c(CC3CCC(F)(F)CC3)c(C(C)(F)F)nc2c1 [Compound 164, 5-Cyano-3-[(4,4-difluorocyclohexyl)methyl]-2-(1,1-difluoroethyl)-N-(2-methoxy-2-methylpropyl)imidazo[1,2-a]pyridine-7-carboxamide]
- IC50 [1]: ≤ 100 nM
- inhibition of the increase of the scratching behavior in morphine-induced pruritus mice ([2]; oral dose of 10 mg/kg or less): inhibited the increase of the scratching behavior
